The values that follow are results of earlier work, collected in patent US20120283306A1, “MOUSE MODEL FOR AVM” (Georgia Health Sciences University, priority 2011, published 2012).

For this data set the following is noted: mouse, in vivo.

With `Cc1ccc(-c2cc(C(F)(F)F)nn2-c2ccc(S(N)(=O)=O)cc2)cc1` [celecoxib], the tolerability in mice entry is reported as “well tolerated”.
